Laboratory results: the supplement of paper PMC10331698
± gives the standard deviation of the averaged measurements.

Columns and labels:
Assay in all cases: level (log10 ratio to DMSO vehicle control); higher = higher biomarker level / cell amount than vehicle control
[1] = compound: COC(=O)C(F)(F)C(F)(F)OC(F)(C(F)(F)F)C(F)(F)OC(F)=C(F)F [Methyl perfluoro(3-(1-ethenyloxypropan-2-yloxy)propanoate)]; details: in DMSO
Protocol: (§1)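 BioMAP Diversity Plus panel of 12 human primary cell co-culture systems (3C, 4H, LPS, SAg, BT, BF4T, BE3C, CASM3C, HDF3CGF, KF3CT, MyoF, Mphg). Compounds were added 1 h before stimulation and left for 24 h (MyoF 48 h; BT 72 h for soluble read-outs or 6 d for IgG). Biomarkers were read by ELISA, cytotoxicity by SRB, PBMC viability and proliferation by Alamar Blue. Each well value was divided by the mean of 8 DMSO control wells on the same plate and log10 transformed; duplicate blinded samples were tested at 4 concentrations.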

[2] = compound: O=C(O)C=CC(F)(C(F)(F)F)C(F)(F)F [3-(Perfluoroisopropyl)-2-propenoic acid]; details: in DMSO
Protocol: as §1

[3] = compound: FC(F)(F)C(F)(F)C(F)(F)CC1CO1 [1H,1H-Heptafluorobutyl epoxide]; details: in DMSO
Protocol: as §1

[4] = compound: C=C(C)C(=O)OCCC(F)(F)C(F)(F)C(F)(F)C(F)(F)C(F)(F)C(F)(F)F [6:2 Fluorotelomer methacrylate]; details: in DMSO
Protocol: as §1

[5] = compound: FC(F)(F)C(F)(F)C(F)(F)C(F)(F)C(F)(F)C(F)(F)C(F)(F)I [1-Iodopentadecafluoroheptane]; details: in DMSO
Protocol: as §1

Octafluoroadipamide = compound: NC(=O)C(F)(F)C(F)(F)C(F)(F)C(F)(F)C(N)=O [Octafluoroadipamide]; details: in DMSO
Protocol: as §1

Heptafluorobutyl iodide = compound: FC(F)(F)C(F)(F)C(F)(F)CI [Heptafluorobutyl iodide]; details: in DMSO
Protocol: as §1

[6] = compound: C=CC(=O)OCC(F)(F)C(F)(F)C(F)(F)COC(=O)C=C [1H,1H,5H,5H-Perfluoro-1,5-pentanediol diacrylate]; details: 6700 nM; in DMSO
Protocol: as §1

Row | Test System | level (log10) ([1]; 6700 nM) | level (log10) ([1]; 20000 nM) | level (log10) ([2]; 6700 nM) | level (log10) ([2]; 20000 nM) | level (log10) ([2]; 60000 nM) | level (log10) ([3]; 6700 nM) | level (log10) ([3]; 20000 nM) | level (log10) ([3]; 60000 nM) | level (log10) ([4]; 6700 nM) | level (log10) ([4]; 20000 nM) | level (log10) ([4]; 60000 nM) | level (log10) ([5]; 6700 nM) | level (log10) ([5]; 20000 nM) | level (log10) (Octafluoroadipamide; 6700 nM) | level (log10) (Octafluoroadipamide; 20000 nM) | level (log10) (Octafluoroadipamide; 60000 nM) | level (log10) (Heptafluorobutyl iodide; 6700 nM) | level (log10) (Heptafluorobutyl iodide; 20000 nM) | level (log10) (Heptafluorobutyl iodide; 60000 nM) | level (log10) [6]
1 | BE3C:CD54/ICAM-1 | -0.0205 ± 0.005 | -0.017 ± 0.0014 | 0.002 ± 0.0057 | -0.005 | 0.004 ± 0.0071 | 0.001 ± 0.0028 | -0.013 ± 0.034 | 0.0055 ± 0.015 | -0.0055 ± 0.0064 | -0.0085 ± 0.011 | 0.015 ± 0.0099 | -0.0125 ± 0.026 | 0.006 ± 0.013 | -0.0135 ± 0.025 | -0.0185 ± 0.016 | 0.016 ± 0.034 | 0.013 ± 0.021 | 0.005 ± 0.0071 | 0.0085 ± 0.0078 | -0.018 ± 0.014
2 | BE3C:CD87/uPAR | 0.038 ± 0.038 | 0.05 ± 0.041 | 0.005 ± 0.0085 | 0.002 ± 0.045 | 0.052 ± 0.038 | 0.0105 ± 0.0092 | -0.004 ± 0.024 | -0.004 ± 0.023 | -0.047 ± 0.027 | -0.0335 ± 0.019 | -0.0305 ± 0.028 | 0.001 ± 0.034 | 0.008 ± 0.011 | -0.0295 ± 0.043 | -0.044 ± 0.071 | -0.0195 ± 0.093 | 0.0115 ± 0.033 | -0.0435 ± 0.016 | -0.001 ± 0.0057 | 0.0195 ± 0.0064
3 | BE3C:CXCL9/MIG | -0.0035 ± 0.0035 | -0.019 ± 0.0099 | 0.0135 ± 0.015 | 0.016 ± 0.017 | 0.0235 ± 0.013 | -0.0125 ± 0.0064 | 0 ± 0.0028 | -0.0075 ± 0.0064 | 0.0055 ± 0.028 | 0.008 ± 0.035 | 0.015 ± 0.045 | -0.0035 ± 0.021 | 0.003 ± 0.013 | -0.008 | -0.007 ± 0.0057 | 0.006 ± 0.0071 | -0.002 ± 0.0099 | -0.002 ± 0.0014 | 0.0065 ± 0.018 | 0.0095 ± 0.0021
4 | BE3C:CXCL10/IP-10 | -0.02 ± 0.013 | -0.054 ± 0.013 | 0.0055 ± 0.0035 | 0.004 ± 0.0099 | 0.009 ± 0.0014 | -0.013 ± 0.0071 | -0.0065 ± 0.0092 | -0.012 ± 0.0042 | 0.0275 ± 0.091 | 0.021 ± 0.068 | 0.034 ± 0.078 | 0.01 ± 0.02 | 0.0195 ± 0.035 | -0.0275 ± 0.047 | -0.031 ± 0.03 | -0.0185 ± 0.056 | -0.0015 ± 0.0064 | -0.005 ± 0.0057 | 0.005 ± 0.013 | -0.0215 ± 0.0035
5 | BE3C:EGFR | -0.04 ± 0.014 | -0.053 ± 0.031 | 0.0005 ± 0.016 | 0.0085 ± 0.00071 | 0.004 ± 0.0014 | -0.0025 ± 0.0064 | -0.0045 ± 0.0064 | -0.018 ± 0.0042 | 0.0045 ± 0.052 | 0.0085 ± 0.043 | 0.0135 ± 0.049 | 0.014 ± 0.0071 | 0.0185 ± 0.026 | -0.019 ± 0.016 | -0.014 ± 0.0099 | 0.004 ± 0.04 | -0.015 ± 0.017 | -0.019 ± 0.0071 | 0.0015 ± 0.005 | -0.01
6 | BE3C:HLA-DR | -0.0235 ± 0.042 | -0.0275 ± 0.032 | -0.0075 ± 0.013 | 0.0035 ± 0.015 | 0.0095 ± 0.018 | 0.002 ± 0.013 | -0.0075 ± 0.012 | -0.01 ± 0.025 | 0.0015 ± 0.016 | -0.0065 ± 0.0064 | 0.0125 ± 0.005 | 0.0035 ± 0.0021 | 0.0015 ± 0.0078 | -0.003 ± 0.0014 | -0.0015 ± 0.00071 | 0.0175 ± 0.037 | -0.0055 ± 0.0064 | -0.022 ± 0.024 | -0.0035 ± 0.018 | -0.0175 ± 0.028
7 | BF4T:CCL2/MCP-1 | 0.041 ± 0.033 | -0.152 ± 0.32 | 0.0045 ± 0.023 | 0.003 ± 0.013 | 0.0505 ± 0.076 | 0.005 ± 0.0014 | -0.0095 ± 0.0035 | 0.014 ± 0.0042 | 0.0165 ± 0.005 | -0.012 ± 0.014 | 0.002 ± 0.021 | -0.0105 ± 0.0092 | 0.011 ± 0.02 | 0.003 ± 0.011 | -0.0025 ± 0.0064 | -0.02 ± 0.031 | 0.0025 ± 0.028 | 0.068 ± 0.11 | 0.046 ± 0.023 | -0.073 ± 0.0099
8 | BF4T:CCL26/Eotaxin-3 | -0.007 | -0.069 ± 0.014 | -0.0085 ± 0.057 | -0.005 ± 0.013 | 0.0165 ± 0.029 | -0.001 ± 0.013 | 0.0095 ± 0.0035 | 0.01 ± 0.011 | 0.0285 ± 0.025 | -0.001 ± 0.11 | 0.041 ± 0.055 | -0.04 ± 0.048 | -0.0305 ± 0.042 | -0.0045 ± 0.046 | 0.0065 ± 0.052 | 0.0075 ± 0.029 | -0.0245 ± 0.005 | 0.002 ± 0.023 | 0.048 ± 0.023 | -0.04 ± 0.0028
9 | BF4T:CD54/ICAM-1 | -0.0215 ± 0.011 | -0.0265 ± 0.0064 | 0.007 ± 0.0042 | -0.0005 ± 0.025 | 0.011 ± 0.0028 | -0.027 ± 0.016 | -0.003 ± 0.035 | -0.0245 ± 0.018 | -0.019 ± 0.0042 | -0.0045 ± 0.026 | -0.0195 ± 0.0035 | 0.004 ± 0.011 | -0.0025 ± 0.013 | -0.015 ± 0.023 | -0.017 ± 0.021 | 0.009 ± 0.016 | -0.012 ± 0.011 | -0.008 ± 0.016 | -0.003 ± 0.031 | -0.084 ± 0.011
10 | BF4T:CD90 | -0.004 ± 0.017 | -0.0045 ± 0.0078 | -0.0005 ± 0.013 | -0.0105 ± 0.0035 | 0.018 ± 0.0028 | -0.026 ± 0.014 | -0.0175 ± 0.0092 | -0.0125 ± 0.0078 | -0.004 ± 0.0057 | -0.007 ± 0.0057 | -0.0065 ± 0.0021 | 0.001 ± 0.016 | -0.0025 ± 0.0021 | -0.0155 ± 0.0078 | -0.0145 ± 0.0021 | -0.0125 ± 0.021 | 0.003 ± 0.018 | -0.009 ± 0.0028 | 0.001 ± 0.017 | -0.0195 ± 0.018
11 | BF4T:CD106/VCAM-1 | -0.007 ± 0.071 | -0.091 ± 0.025 | -0.0095 ± 0.04 | -0.0275 ± 0.025 | 0.0225 ± 0.019 | -0.0055 ± 0.015 | -0.015 ± 0.017 | -0.021 ± 0.0071 | 0.008 ± 0.079 | 0.039 | -0.0215 ± 0.028 | -0.005 ± 0.011 | -0.031 ± 0.0028 | -0.0265 ± 0.021 | -0.0215 ± 0.016 | 0.0155 ± 0.061 | -0.016 ± 0.0057 | -0.021 ± 0.0042 | 0.017 ± 0.045 | -0.0685 ± 0.026
12 | BF4T:CXCL8/IL-8 | 0.0395 ± 0.016 | 0.095 ± 0.0099 | 0.0055 ± 0.012 | -0.0015 ± 0.0064 | 0.001 ± 0.021 | 0.023 ± 0.041 | 0.0165 ± 0.03 | 0.0325 ± 0.05 | 0.032 ± 0.061 | 0.028 ± 0.037 | 0.0435 ± 0.033 | 0.0515 ± 0.079 | 0.0425 ± 0.044 | -0.0185 ± 0.0064 | -0.022 ± 0.011 | -0.003 ± 0.044 | 0.0085 ± 0.029 | 0.061 ± 0.11 | 0.0505 ± 0.063 | -0.0315 ± 0.037
13 | BF4T:IL-1alpha | -0.002 ± 0.0014 | 0.0105 ± 0.023 | -0.002 ± 0.021 | 0.0065 ± 0.011 | 0.012 ± 0.0057 | 0.0165 ± 0.015 | 0.0095 ± 0.016 | 0.0355 ± 0.053 | -0.025 ± 0.041 | -0.0245 ± 0.025 | -0.0125 ± 0.018 | -0.0035 ± 0.0035 | 0.003 ± 0.0014 | 0.007 ± 0.0071 | -0.005 ± 0.0071 | 0.0215 ± 0.018 | -0.017 ± 0.016 | -0.0125 ± 0.0035 | -0.015 ± 0.05 | 0.0055 ± 0.036
14 | BF4T:Keratin 8/18 | 0.029 ± 0.02 | 0.015 ± 0.042 | -0.018 ± 0.028 | -0.0135 ± 0.0021 | -0.0035 ± 0.044 | -0.001 ± 0.011 | -0.0025 ± 0.0064 | -0.0235 ± 0.0078 | -0.0305 ± 0.019 | -0.0345 ± 0.044 | -0.054 ± 0.013 | -0.031 ± 0.021 | -0.054 ± 0.0028 | -0.0025 ± 0.0092 | -0.004 ± 0.0014 | 0.017 ± 0.033 | -0.022 ± 0.014 | -0.0265 ± 0.0035 | -0.0045 ± 0.039 | 0.0095 ± 0.0092
